This is an account of results in paper PMC8292455, “Kinetic characterisation and inhibitor sensitivity of Candida albicans and Candida auris recombinant AOX expressed in a self-assembled proteoliposome system” (Scientific Reports, 2021).

For data set [1], the target named is T1, C. albicans AOX2 (Candida albicans, UniProt Q9UV71).
T1 construct: twin-strep tag (pET15b.TS, pTS.CalbAOX2) kept; from E. coli FN102; in self-assembled proteoliposomes
T1 sequence (Q9UV71 27-365): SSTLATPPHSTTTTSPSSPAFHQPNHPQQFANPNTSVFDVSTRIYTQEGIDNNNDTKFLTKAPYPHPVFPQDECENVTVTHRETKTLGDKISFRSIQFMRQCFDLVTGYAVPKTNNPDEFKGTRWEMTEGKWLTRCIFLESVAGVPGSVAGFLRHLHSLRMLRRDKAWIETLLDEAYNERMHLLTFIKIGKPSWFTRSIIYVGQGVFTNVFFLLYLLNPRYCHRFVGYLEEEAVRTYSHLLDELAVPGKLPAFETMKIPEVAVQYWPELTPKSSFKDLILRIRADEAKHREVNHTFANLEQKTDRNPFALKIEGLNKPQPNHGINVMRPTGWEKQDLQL
Nature of the data set: NADH oxidation at […] nm in NDH-2/AOX proteoliposomes, dose-response. In kind it is biochemical.

Data set [2] addresses T2, C. auris AOX (Candidozyma auris, UniProt A0A0L0NPQ3).
T2 construct: twin-strep tag (pET15b.TS, pTS.CaAOX) kept; from E. coli FN102; in self-assembled proteoliposomes
The description is as above. In kind it is biochemical.

For data set [3], the target named is T3, NDH-2 (Caldalkalibacillus thermarum, UniProt F5L3B8).
T3 construct: gene CathTA2_0279; His-tagged, from E. coli C41 (plasmid pTRCndh2); predicted mass 44 kDa
T3 sequence (F5L3B8 1-399): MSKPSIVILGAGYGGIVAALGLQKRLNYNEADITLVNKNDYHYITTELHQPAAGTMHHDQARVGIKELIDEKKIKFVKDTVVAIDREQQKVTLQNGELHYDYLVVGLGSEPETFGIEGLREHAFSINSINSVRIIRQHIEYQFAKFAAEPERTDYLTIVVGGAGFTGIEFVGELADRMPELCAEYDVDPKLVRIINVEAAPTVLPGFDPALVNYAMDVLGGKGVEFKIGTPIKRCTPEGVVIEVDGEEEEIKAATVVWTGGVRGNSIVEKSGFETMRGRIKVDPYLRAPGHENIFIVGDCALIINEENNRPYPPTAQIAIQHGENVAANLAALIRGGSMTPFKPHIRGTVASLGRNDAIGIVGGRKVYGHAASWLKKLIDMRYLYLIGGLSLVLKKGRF
Nature of the data set: NADH oxidation at […] nm. To be noted: 50 mM MOPS pH 7.5, 250 uM Q1, 300 uM NADH. The format is biochemical.

The target in data set [4] is T1, C. albicans AOX2. Nature of the data set: oxygen consumption of NDH-2/AOX proteoliposomes (Oroboros oxygraph), dose-response. The format is biochemical.
Data set [5] addresses T2, C. auris AOX. The data set is described as above. In kind it is biochemical.
For data set [6], the system named is COc1c(O)c(C)c(C/C=C(\C)CC/C=C(\C)CC/C=C(\C)CC/C=C(\C)CC/C=C(\C)CC/C=C(\C)CC/C=C(\C)CC/C=C(\C)CC/C=C(\C)CCC=C(C)C)c(O)c1OC. Briefly: purified protein. As to conditions: 65 mM MOPS pH 7.5, 300 uM NADH, excess NDH-2, Q10 concentration in the lipid phase.
Substrate in data set [7]: COc1c(O)c(C)c(C/C=C(\C)CC/C=C(\C)CC/C=C(\C)CC/C=C(\C)CC/C=C(\C)CC/C=C(\C)CC/C=C(\C)CC/C=C(\C)CC/C=C(\C)CCC=C(C)C)c(O)c1OC
Briefly: purified protein. In kind it is biochemical, Candida albicans. As to conditions: 65 mM MOPS pH 7.5, 300 uM NADH, excess NDH-2, Q10 concentration in the lipid phase.

T2 sequence (A0A0L0NPQ3 25-333 limits assumed): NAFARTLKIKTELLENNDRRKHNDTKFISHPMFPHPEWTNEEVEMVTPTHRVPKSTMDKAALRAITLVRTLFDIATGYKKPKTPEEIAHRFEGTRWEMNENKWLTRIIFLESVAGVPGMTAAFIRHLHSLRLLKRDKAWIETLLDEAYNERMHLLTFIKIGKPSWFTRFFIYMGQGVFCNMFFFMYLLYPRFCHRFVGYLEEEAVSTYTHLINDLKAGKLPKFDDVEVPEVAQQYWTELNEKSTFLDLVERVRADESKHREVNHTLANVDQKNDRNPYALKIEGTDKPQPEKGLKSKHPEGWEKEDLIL

Broadly, the IC50 is the concentration that inhibits the measured activity by half. The low end stands for inhibition by little substance, the high end for a need for much substance. With `C/C(=C\Cc1c(O)c(Cl)c(C)c(C=O)c1O)CC/C=C(\C)[C@@H]1CC(=O)C(C)(C)O1` [AF, Ascofuranone], the values for the IC50 in data set [1] and in data set [2] were 0.213 ± 0.027 µM and 0.129 ± 0.018 µM, respectively.
For `CC(C)=CCC/C(C)=C/Cc1c(O)c(Cl)c(C)c(C=O)c1O` [CB, colletochlorin B] the same measures were 0.053 ± 0.016 µM and 0.055 ± 0.01 µM.
Turning to `NC(=O)C1=CN([C@@H]2O[C@H](COP(=O)(O)OP(=O)(O)OC[C@H]3O[C@@H](n4cnc5c(N)ncnc54)[C@H](O)[C@@H]3O)[C@@H](O)[C@H]2O)C=CC1` [NADH], the “NADH oxidation at 340 nm” value in data set [3] is “measured spectrophotometrically by measuring the oxidation of NADH at A340 nm”.
Take `O=C(NO)c1ccccc1O` [SHAM]: the IC50 in data set [4] is 3500 ± 700 µM; in data set [5], 5000 ± 600 µM.
Usually Km stands for the substrate concentration at which the rate is half of its maximum. The term kcat denotes the maximal rate divided by the concentration of active sites. Consider C. auris AOX (Candidozyma auris), for which, in data set [6], the Km amounted to 7.3 ± 1.4 mM and the kcat came to 108 ± 3 s⁻¹.

B1: C. albicans AOX2 (Candida albicans) (protein)
chain: SSTLATPPHSTTTTSPSSPAFHQPNHPQQFANPNTSVFDVSTRIYTQEGIDNNNDTKFLTKAPYPHPVFPQDECENVTVTHRETKTLGDKISFRSIQFMRQCFDLVTGYAVPKTNNPDEFKGTRWEMTEGKWLTRCIFLESVAGVPGSVAGFLRHLHSLRMLRRDKAWIETLLDEAYNERMHLLTFIKIGKPSWFTRSIIYVGQGVFTNVFFLLYLLNPRYCHRFVGYLEEEAVRTYSHLLDELAVPGKLPAFETMKIPEVAVQYWPELTPKSSFKDLILRIRADEAKHREVNHTFANLEQKTDRNPFALKIEGLNKPQPNHGINVMRPTGWEKQDLQL
notes: twin-strep tag (pET15b.TS, pTS.CalbAOX2) kept; from E. coli FN102; in self-assembled proteoliposomes
As for B1, in data set [7], the Km stood at 6.3 ± 1.3 mM and the kcat came to 404 ± 51 s⁻¹.
